Paper PMC9481570, “A small molecule antagonist of SMN disrupts the interaction between SMN and RNAP II” (Nature Communications, 2022)
Where “and” joins values, the source holds several entries; their conditions need not be identical. Equal values may be shown once.

Key:
Experiment in all cases: Affinity-purification and mass spectrometry (AP-MS) chemical proteomics, all proteins;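 as to Difference: 200 µM free competitor with 20 µM biotin probe overnight in lysate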
Assay type in all cases: binding
[1] = biological target: T1, proteins displaced from immobilized biotin-Cmpd 1 pulldowns (U2OS cell lysate) (Homo sapiens, UniProt Q6PK04); settings: GN=CCDC137 (Q6PK04)
T1 construct: endogenous in cells; host or cells: U2OS
T1 sequence (Q6PK04 whole entry): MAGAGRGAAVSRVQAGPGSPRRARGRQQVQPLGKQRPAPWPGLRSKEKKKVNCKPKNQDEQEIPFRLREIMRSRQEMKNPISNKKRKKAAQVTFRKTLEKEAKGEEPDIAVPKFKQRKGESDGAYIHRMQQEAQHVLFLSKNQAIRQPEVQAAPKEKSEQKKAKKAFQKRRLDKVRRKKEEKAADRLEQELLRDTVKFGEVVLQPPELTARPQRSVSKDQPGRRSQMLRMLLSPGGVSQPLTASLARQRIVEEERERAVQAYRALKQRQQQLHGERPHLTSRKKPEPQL
Method: (§1) The samples for AP-MS were prepared following pulldown procedure as previously described with minor modifications. Briefly, U2OS cells were lysed in RIPA buffer and the cell lysate was equally divided into two groups: (1) DMSO group (control group): the cell lysate was incubated with 20 μM biotin-labeled compound 1; (2) Cpmd 1 group (sample group): the cell lysate was incubated with 20 μM biotin-labeled compound 1 and 200 μM free compound 1. Each group contains three biological replicates. They were incubated overnight at 4 °C, then 30 μL streptavidin beads (Thermo Fisher, 20353) was added and incubated at 4 °C for 1 h. The beads were then washed with RIPA buffer for 3 times, 10 min/time.
(§2) Beads were rinsed twice with 50 mM TEAB, pH 7.55, before eluting proteins with 25 μL of 5% SDS, 50 mM TEAB, pH 7.55. The sample was then centrifuged at 17,000 × g for 10 min to remove any debris. Proteins were reduced with 20 mM TCEP (Thermo Fisher, 77720) and incubated at 65 °C for 30 min. The sample was cooled to room temperature and 1 μL of 0.5 M iodoacetamide acid was added and allowed to react for 20 min in dark. Phosphoric acid (12%, 2.75 μL) was added to the protein solution, followed by adding 165 μL of binding buffer (90% methanol, 100 mM TEAB, pH 7.1). The resulting solution was added to S-Trap spin column (protifi.com) and passed through the column using a bench top centrifuge (30 s spin at 4000 × g). The spin column was washed with 400 μL of binding buffer and centrifuged. This step was repeated two more times. Then trypsin was added to the protein mixture at a mass ratio of 1:25 in 50 mM TEAB, pH 8.0, and the sample was incubated at 37 °C for 4 h. Peptides were eluted with 80 μL of 50 mM TEAB, followed by 80 μL of 0.2% formic acid, and finally 80 μL of 50% acetonitrile, 0.2% formic acid. The combined peptide solution was then dried in a speed vac and resuspended in 2% acetonitrile, 0.1% formic acid, 97.9% water and placed in an autosampler vial.
(§3) Samples were analyzed by nanoLC-MS/MS (nanoRSLC, Thermo Fisher) using an Aurora series (Ion Opticks) reversed phase HPLC column (25 cm length × 75 µm inner diameter) and directly injected to an Orbitrap Eclipse (Thermo Fisher) using a 120 min gradient (mobile phase A = 0.1% formic acid, mobile phase B = 99.9% acetonitrile with 0.1% formic acid; hold 2% B for 5 min, 2–6% B in 0.1 min, 6–25% in 100 min, 25–50% in 15 min) at a flow rate of 350 nL/min. Eluted peptide ions were analyzed using a data-dependent acquisition (DDA) method with resolution settings of 120,000 and 15,000 (at m/z 200) for MS1 and MS2 scans, respectively. DDA-selected peptides were fragmented using stepped high energy collisional dissociation (27, 32, and 37%).
(§4) The data of AP-MS were analyzed as a previously described method with minor modifications. Briefly, the raw MS files were searched with MaxQuant software (version 1.6.1.1, www.maxquant.org)[56] against the UniProt human protein database (www.uniprot.org) concatenated with common contaminants and the decoy database. The mass tolerance for precursor ions was set to 20 ppm and 4.5 ppm for the first and main search, respectively. The cysteine carbamidomethylation was set as fixed modification and methionine oxidation and N-terminal acetylation as variable modifications. Enzyme specificity was set to trypsin and a maximum missed cleavage was set as 2. The 1% false discovery rate (FDR) at both peptide and protein levels was applied for the analysis. Relative protein quantification was based on the label-free quantification incorporated in the MaxQuant software. The iBAQ intensity of proteins was obtained for the control and experimental samples. The missing iBAQ intensity was replaced by a random number, which was calculated from a normal distribution with a width of 0.3 and a downshift of 1.8 defined by Perseus software (version 1.6.5.0). The P-value was calculated by performing two-sample Student’s t-test. […]

[2] = biological target: T2, proteins displaced from immobilized biotin-Cmpd 1 pulldowns (U2OS cell lysate) (Homo sapiens, UniProt P46783); settings: GN=RPS10 (P46783)
T2 construct: endogenous in cells; host or cells: U2OS
Method: as §1, §2, §3, §4

[3] = biological target: T3, proteins displaced from immobilized biotin-Cmpd 1 pulldowns (U2OS cell lysate) (Homo sapiens, UniProt P20700); settings: GN=LMNB1 (P20700)
T3 construct: endogenous in cells; host or cells: U2OS
T3 sequence (P20700 whole entry): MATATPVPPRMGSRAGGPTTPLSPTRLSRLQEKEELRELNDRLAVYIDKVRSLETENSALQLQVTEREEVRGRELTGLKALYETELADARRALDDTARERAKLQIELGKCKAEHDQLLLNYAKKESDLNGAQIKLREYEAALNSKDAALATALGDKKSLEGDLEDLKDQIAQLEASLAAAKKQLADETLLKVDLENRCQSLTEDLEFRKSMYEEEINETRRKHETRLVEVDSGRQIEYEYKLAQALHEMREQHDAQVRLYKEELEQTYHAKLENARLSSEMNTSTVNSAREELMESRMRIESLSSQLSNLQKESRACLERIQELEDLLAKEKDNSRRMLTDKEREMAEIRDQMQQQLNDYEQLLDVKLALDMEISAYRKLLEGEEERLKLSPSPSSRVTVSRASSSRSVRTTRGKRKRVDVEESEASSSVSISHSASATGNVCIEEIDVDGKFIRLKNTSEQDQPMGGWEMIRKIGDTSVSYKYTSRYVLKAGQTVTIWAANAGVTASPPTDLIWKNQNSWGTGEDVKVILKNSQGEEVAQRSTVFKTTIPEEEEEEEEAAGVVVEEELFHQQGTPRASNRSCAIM
Method: as §1, §2, §3, §4

[4] = biological target: T4, proteins displaced from immobilized biotin-Cmpd 1 pulldowns (U2OS cell lysate) (Homo sapiens, UniProt P35606); settings: GN=COPB2 (P35606)
T4 construct: endogenous in cells; host or cells: U2OS
T4 sequence (P35606 whole entry): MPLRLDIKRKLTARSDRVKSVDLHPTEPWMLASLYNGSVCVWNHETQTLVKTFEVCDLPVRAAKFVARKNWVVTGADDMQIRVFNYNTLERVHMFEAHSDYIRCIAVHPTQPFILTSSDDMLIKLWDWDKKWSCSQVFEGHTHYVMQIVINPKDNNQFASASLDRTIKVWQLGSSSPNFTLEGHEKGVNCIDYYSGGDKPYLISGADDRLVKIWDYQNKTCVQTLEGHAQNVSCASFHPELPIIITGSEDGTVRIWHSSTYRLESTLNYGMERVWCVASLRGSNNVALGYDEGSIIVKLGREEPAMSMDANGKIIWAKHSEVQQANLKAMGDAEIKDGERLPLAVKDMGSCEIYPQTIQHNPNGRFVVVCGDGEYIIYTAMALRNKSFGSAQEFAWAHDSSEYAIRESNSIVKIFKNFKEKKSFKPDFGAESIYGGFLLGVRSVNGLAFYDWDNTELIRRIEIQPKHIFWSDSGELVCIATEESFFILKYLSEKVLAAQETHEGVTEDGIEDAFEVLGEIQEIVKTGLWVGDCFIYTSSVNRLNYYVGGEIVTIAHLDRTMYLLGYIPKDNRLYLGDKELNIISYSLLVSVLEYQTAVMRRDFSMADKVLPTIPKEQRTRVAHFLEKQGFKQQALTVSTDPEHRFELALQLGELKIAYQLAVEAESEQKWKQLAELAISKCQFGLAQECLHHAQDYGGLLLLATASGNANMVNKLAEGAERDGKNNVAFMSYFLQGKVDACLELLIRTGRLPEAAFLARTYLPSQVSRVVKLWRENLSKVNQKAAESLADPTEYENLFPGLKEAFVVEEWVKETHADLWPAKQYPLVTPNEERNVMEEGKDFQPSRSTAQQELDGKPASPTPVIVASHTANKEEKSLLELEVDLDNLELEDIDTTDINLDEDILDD
Method: as §1, §2, §3, §4

[5] = biological target: T5, proteins displaced from immobilized biotin-Cmpd 1 pulldowns (U2OS cell lysate) (Homo sapiens, UniProt P04083); settings: GN=ANXA1 (P04083)
T5 construct: endogenous in cells; host or cells: U2OS
T5 sequence (P04083 whole entry): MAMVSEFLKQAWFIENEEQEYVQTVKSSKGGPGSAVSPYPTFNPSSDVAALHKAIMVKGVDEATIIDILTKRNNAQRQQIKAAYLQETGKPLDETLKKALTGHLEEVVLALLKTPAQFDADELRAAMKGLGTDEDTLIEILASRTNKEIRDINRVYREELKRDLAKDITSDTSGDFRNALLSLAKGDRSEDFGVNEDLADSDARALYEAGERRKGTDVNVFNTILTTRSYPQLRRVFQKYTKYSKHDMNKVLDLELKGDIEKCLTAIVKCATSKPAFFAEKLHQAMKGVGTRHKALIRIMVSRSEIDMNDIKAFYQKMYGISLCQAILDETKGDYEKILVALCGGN
Method: as §1, §2, §3, §4

[6] = biological target: T6, proteins displaced from immobilized biotin-Cmpd 1 pulldowns (U2OS cell lysate) (Homo sapiens, UniProt Q15050); settings: GN=RRS1 (Q15050)
T6 construct: endogenous in cells; host or cells: U2OS
T6 sequence (Q15050 whole entry): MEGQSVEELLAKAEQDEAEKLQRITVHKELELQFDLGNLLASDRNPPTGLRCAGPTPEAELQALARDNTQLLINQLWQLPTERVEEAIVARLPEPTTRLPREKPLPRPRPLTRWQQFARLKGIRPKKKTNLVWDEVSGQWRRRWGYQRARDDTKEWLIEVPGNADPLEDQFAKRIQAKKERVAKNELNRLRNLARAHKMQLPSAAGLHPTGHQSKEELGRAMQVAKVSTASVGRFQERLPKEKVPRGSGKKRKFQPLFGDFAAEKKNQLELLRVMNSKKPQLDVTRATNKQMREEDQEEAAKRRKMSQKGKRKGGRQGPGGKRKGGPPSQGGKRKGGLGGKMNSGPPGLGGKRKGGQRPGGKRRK
Method: as §1, §2, §3, §4

[7] = system: proteins displaced from immobilized biotin-Cmpd 1 pulldowns (U2OS cell lysate); settings: Cmpd minus DMSO
Method: as §1, §2, §3, §4

[8] = biological target: T7, proteins displaced from immobilized biotin-Cmpd 1 pulldowns (U2OS cell lysate) (Homo sapiens, UniProt Q96AG4); settings: GN=LRRC59 (Q96AG4)
T7 construct: endogenous in cells; host or cells: U2OS
T7 sequence (Q96AG4 whole entry): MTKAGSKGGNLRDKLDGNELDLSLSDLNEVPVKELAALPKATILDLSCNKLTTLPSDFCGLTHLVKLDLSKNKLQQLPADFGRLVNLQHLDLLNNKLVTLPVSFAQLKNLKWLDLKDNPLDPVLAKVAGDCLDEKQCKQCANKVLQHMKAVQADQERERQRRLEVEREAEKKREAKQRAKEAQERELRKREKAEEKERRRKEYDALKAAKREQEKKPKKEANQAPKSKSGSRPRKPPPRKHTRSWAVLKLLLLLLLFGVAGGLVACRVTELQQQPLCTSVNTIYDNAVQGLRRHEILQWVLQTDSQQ
Method: as §1, §2, §3, §4

[9] = biological target: T8, proteins displaced from immobilized biotin-Cmpd 1 pulldowns (U2OS cell lysate) (Homo sapiens, UniProt P10599); settings: GN=TXN (P10599)
T8 construct: endogenous in cells; host or cells: U2OS
T8 sequence (P10599 whole entry): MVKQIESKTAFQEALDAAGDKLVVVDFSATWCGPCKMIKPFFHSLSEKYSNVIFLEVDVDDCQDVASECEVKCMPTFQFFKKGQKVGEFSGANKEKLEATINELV
Method: as §1, §2, §3, §4

## Cn1c2c(c(=N)c3c1CCC3)CCC2 [Compound 1, 4-methyl-2,3,4,5,6,7-hexahydrodicyclopenta[b,e]pyridin-8(1H)-imine]
[1]; Cmpd minus DMSO, -LOG(P-value) 1.1923
  Difference: 2.593
[1]; replicates 1-3
  iBAQ Cmpd: 19.0065 and 18.1463 and 18.0423
[2]; Cmpd minus DMSO, -LOG(P-value) 0.711634
  Difference: 0.8419
[2]; replicates 1-3
  iBAQ Cmpd: 20.3934 and 20.6157 and 19.9486
[3]; Cmpd minus DMSO, -LOG(P-value) 0.765149
  Difference: 0.6571
[3]; replicates 1-3
  iBAQ Cmpd: 20.5307 and 20.0559 and 19.5746
[4]; Cmpd minus DMSO, -LOG(P-value) 1.0232
  Difference: 1.032
[4]; replicates 1-3
  iBAQ Cmpd: 16.3801 and 15.3301 and 15.6123
[5]; Cmpd minus DMSO, -LOG(P-value) 1.67082
  Difference: -2.872
[5]; replicates 1-3
  iBAQ Cmpd: 14.2553 and 14.7701 and 16.566
[6]; Cmpd minus DMSO, -LOG(P-value) 0.720694
  Difference: 2.281
[6]; replicates 1-3
  iBAQ Cmpd: 15.4548 and 18.445 and 19.3119
[7]; GN=ACTA1/ACTC1 (P68133;P68032;P63267;P62736), -LOG(P-value) 1.19415
  Difference: -2.469
[7]; GN=FXR1 (P51114;P51116 FXR2), -LOG(P-value) 0.714644
  Difference: 1.56
[7]; GN=MYL1/MYL3 (P05976;P08590), -LOG(P-value) 0.754366
  Difference: -4.118
[7]; GN=RGPD4/RGPD3 (Q7Z3J3;A6NKT7;P49792), -LOG(P-value) 1.07048
  Difference: -0.9439
[7]; GN=TUBB2A/TUBB2B (Q13885;Q9BVA1), -LOG(P-value) 2.56756
  Difference: 3.9801
[8]; Cmpd minus DMSO, -LOG(P-value) 0.840063
  Difference: -2.23
[8]; replicates 1-3
  iBAQ Cmpd: 17.7382 and 14.7804 and 13.8761
[9]; Cmpd minus DMSO, -LOG(P-value) 1.02279
  Difference: -1.031
[9]; replicates 1-3
  iBAQ Cmpd: 20.7578 and 20.8108 and 19.926
